Reference: US11944624B2, “Peptide and small molecule agonists of EphA and their uses” (CASE WESTERN RESERVE UNIVERSITY, priority 2017, dated 2024)

Columns and labels:
[1] = biological target: T1, EphA4 (Homo sapiens, UniProt P54764); experiment: EphA4 activation in HEK 293 cells overexpressing EphA4; assay type: cell-based; conditions: HEK 293 overexpressing EphA4, 60 minutes
T1 construct: expressed in transfected cells; host or cells: HEK 293
Method: (§4) Cells were plated in 24-well dishes at a density of 100,000 cells/well and grown for 24 hours prior to stimulation with appropriate compounds and ephrins for the given amounts of time. Compounds were prepared in DMSO at 500 times the final concentrations and 0.2% DMSO was used as vehicle control. Following treatment, cells were lysed directly in SDS Gel Loading Buffer and immunoblotted as described previously. […] For immunoprecipitation, 300,000 cells/well were plated in 6-well dishes and lysed in modified RIPA Buffer (20 mM Tris-HCl pH 7.4, 20 mM NaF, 150 mM NaCl, 10% glycerol, 0.1% SDS, 0.5% DCA, 2 mM EDTA, 1% Triton X-100) following treatment. Either 10 μg of ephrin-A1-Fc, or 4 mg of EphA2 mouse monoclonal antibody (Clone D7, Millipore) were used, and mouse IgG was used as a negative control for EphA2 IP. […] For this purpose, HEK 293 cell lines overexpressing EphA1, EphA2, EphA3, EphA4, and EphB3 kinases were utilized.

[2] = biological target: T2, EphA3 (Homo sapiens, UniProt P29320); experiment: EphA3 activation in HEK 293 cells overexpressing EphA3; assay type: cell-based; conditions: HEK 293 overexpressing EphA3, compared to EphA2 and EphA4
T2 construct: expressed in transfected cells; host or cells: HEK 293
T2 sequence (P29320 21-983): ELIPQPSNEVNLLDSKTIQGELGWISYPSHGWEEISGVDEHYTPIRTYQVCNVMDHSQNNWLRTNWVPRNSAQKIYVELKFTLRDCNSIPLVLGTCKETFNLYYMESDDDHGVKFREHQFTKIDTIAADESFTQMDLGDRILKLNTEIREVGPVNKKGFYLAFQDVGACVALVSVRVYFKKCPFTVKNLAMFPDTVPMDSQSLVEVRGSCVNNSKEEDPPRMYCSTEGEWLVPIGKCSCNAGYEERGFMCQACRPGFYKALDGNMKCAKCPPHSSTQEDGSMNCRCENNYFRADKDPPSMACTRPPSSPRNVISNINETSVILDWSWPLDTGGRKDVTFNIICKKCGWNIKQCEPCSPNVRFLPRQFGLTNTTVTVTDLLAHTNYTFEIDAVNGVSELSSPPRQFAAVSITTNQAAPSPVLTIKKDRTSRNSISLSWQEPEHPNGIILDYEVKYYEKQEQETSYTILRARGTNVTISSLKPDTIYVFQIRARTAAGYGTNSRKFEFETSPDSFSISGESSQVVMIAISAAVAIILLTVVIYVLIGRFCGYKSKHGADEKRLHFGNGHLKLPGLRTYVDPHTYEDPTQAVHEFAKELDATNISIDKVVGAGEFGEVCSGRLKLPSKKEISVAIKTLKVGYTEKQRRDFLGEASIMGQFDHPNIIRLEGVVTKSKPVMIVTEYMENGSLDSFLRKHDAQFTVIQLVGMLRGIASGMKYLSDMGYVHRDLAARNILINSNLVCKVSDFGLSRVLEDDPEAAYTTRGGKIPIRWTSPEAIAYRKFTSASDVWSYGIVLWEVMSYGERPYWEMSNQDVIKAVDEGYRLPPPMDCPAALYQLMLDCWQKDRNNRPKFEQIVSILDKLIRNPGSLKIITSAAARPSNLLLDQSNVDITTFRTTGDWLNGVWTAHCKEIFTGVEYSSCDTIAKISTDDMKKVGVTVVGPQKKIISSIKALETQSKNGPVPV
Method: as §4

[3] = biological target: endogenous EphA2 (Homo sapiens, UniProt P29317); experiment: EphA2 internalization in parental MDA-MB-231 cells (immunofluorescence, Example 1); assay type: cell-based; parameters: host or cells: MDA-MB-231 (parental); conditions: 50 μM, two hours
Method: (§1) Cells were plated in 24-well dishes at a density of 100,000 cells/well and grown for 24 hours prior to stimulation with appropriate compounds and ephrins for the given amounts of time. Compounds were prepared in DMSO at 500 times the final concentrations and 0.2% DMSO was used as vehicle control. Following treatment, cells were lysed directly in SDS Gel Loading Buffer and immunoblotted as described previously. Immunoprecipitation and immunofluorescence staining was performed as described. For immunoprecipitation, 300,000 cells/well were plated in 6-well dishes and lysed in modified RIPA Buffer (20 mM Tris-HCl pH 7.4, 20 mM NaF, 150 mM NaCl, 10% glycerol, 0.1% SDS, 0.5% DCA, 2 mM EDTA, 1% Triton X-100) following treatment. Either 10 μg of ephrin-A1-Fc, or […] of EphA2 mouse monoclonal antibody (Clone D7, Millipore) were used, and mouse IgG was used as a negative control for EphA2 IP.
(§2) Similar to other receptor tyrosine kinases, activation of the EphA2 receptor by its ligand, ephrin-A1, results in receptor internalization and eventual degradation. […] This was first performed using the U373 glioma cell line engineered to overexpress EphA2.

[4] = system: MDA-MB-231 breast cancer cells; experiment: Haptotactic cell migration toward fibronectin, MDA-MB-231; assay type: cell-based; conditions: MDA-MB-231, 4 hours
Text: (§3) One of the well-established functions of Eph receptors is the ligand-dependent repulsive guidance of cell migration. As a ligand-mimicking agonist for EphA2, doxazosin is expected to activate EphA2 on tumor cells and repulse migrating tumor cells in vitro. To test this possibility, we first investigated the effects of doxazosin on integrin-mediated haptotactic cell migration toward fibronectin in a modified Boyden chamber cell migration assay. […] The inhibitory effects were observed when doxazosin was presented either in the bottom chamber, or in both top and bottom chambers in the Transwell assay system. […] Therefore, doxazosin can recapitulate a key function attributed to its native ligands, i.e., negative regulation of cell migration.

[5] = biological target: EphA2 (Homo sapiens, UniProt P29317); experiment: EphA2 internalization in U373-A2 cells (immunofluorescence); assay type: cell-based; parameters: expressed in transfected cells; conditions: 60 min, DZ 50 μM, ephrin-A1-Fc 1 μg/ml
Method: as §1, §2

[6] = system: PC3-DAB2IP KD cells; experiment: In vivo metastasis assay, orthotopic PC3-DAB2IP KD xenograft
Method: PC-3 cells (from ATCC) engineered to express both GFP and DAB2IP shRNA were characterized previously. Cells were suspended in serum free medium and 2,000 cells injected directly into the prostate glands of 7 week old NCr athymic nu/nu mice. Three days after injection, mice were divided into two groups, one receiving vehicle alone (5% DMSO/10% Cremophor/PBS) and another 50 mg/kg doxazosin via intraperitoneal injection daily for 10 days. Mice were sacrificed 14 days later and intact primary tumors were imaged under a UV light box with a Digital camera. Lungs were dissected into separate lobes and GFP-expressing metastases were imaged using an inverted fluorescent microscope (Leica). Metastases were enumerated in the two largest lung lobes and placed into size categories based upon their diameters, measured in number of cells (1-10 cells). Total metastatic burden was calculated in each mouse using the following equation: [burden=Σ (# of foci×focus diameter)].
We took advantage of this newly established model system to test how doxazosin can affect metastasis of prostate cancer. To this end, PC3-DAB2IP KD cells were injected orthotopically into the prostate glands of nude mice. Three days later, recipient mice were subject to systemic treatment by daily i.p. injection of either vehicle control, or 50 mg/kg doxazosin for 10 days. Since these cells also expressed green fluorescent protein (GFP), freshly dissected primary tumors could be readily visualized in a GFP light box (FIG. 7A top panels), and distal metastases to lungs and lymph nodes could be observed and quantified under a fluorescent microscope (FIG. 7A lower panels).
Next, we determined whether doxazosin treatment might impact overall survival. Nude mice orthotopically implanted with the PC3-DAP2IP KD cells were treated for 10 days with either doxazosin, or vehicle control and monitored for survival.

[7] = system: PC3-DAB2IP KD cells; experiment: Haptotactic cell migration toward fibronectin, PC3-DAB2IP KD; assay type: cell-based, human; conditions: 4 hours
Text: as §3

[8] = 50 mg/kg i.p. daily for 10 days, versus vehicle

Sequence of EphA2 (P29317 24-976): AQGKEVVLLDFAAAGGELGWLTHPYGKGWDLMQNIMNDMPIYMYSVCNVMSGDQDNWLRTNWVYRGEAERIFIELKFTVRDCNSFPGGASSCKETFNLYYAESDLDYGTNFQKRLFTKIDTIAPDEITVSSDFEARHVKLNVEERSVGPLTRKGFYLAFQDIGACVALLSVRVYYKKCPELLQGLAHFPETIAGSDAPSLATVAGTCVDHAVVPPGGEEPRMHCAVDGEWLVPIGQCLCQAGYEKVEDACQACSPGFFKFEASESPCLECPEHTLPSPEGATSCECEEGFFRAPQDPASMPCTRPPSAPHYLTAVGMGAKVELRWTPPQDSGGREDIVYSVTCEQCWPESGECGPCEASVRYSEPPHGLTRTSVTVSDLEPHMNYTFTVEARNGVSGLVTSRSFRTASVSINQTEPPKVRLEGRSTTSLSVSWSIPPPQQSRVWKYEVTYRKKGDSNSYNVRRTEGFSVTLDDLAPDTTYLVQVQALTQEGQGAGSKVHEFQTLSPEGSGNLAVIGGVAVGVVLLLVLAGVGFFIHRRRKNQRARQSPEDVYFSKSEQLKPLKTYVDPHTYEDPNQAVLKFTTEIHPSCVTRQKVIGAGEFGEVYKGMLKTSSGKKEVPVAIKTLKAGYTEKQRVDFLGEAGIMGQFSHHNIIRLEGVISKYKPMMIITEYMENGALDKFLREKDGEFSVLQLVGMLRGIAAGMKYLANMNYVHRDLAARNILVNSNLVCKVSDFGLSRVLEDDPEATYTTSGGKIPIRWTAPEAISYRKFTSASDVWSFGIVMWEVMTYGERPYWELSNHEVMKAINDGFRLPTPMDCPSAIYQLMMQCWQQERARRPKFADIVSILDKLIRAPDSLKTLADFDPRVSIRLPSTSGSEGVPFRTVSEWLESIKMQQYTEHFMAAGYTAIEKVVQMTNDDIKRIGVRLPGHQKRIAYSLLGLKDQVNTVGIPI
Sequence of endogenous EphA2 (P29317 24-976): as above
T1 sequence (P54764 20-986, species assumed): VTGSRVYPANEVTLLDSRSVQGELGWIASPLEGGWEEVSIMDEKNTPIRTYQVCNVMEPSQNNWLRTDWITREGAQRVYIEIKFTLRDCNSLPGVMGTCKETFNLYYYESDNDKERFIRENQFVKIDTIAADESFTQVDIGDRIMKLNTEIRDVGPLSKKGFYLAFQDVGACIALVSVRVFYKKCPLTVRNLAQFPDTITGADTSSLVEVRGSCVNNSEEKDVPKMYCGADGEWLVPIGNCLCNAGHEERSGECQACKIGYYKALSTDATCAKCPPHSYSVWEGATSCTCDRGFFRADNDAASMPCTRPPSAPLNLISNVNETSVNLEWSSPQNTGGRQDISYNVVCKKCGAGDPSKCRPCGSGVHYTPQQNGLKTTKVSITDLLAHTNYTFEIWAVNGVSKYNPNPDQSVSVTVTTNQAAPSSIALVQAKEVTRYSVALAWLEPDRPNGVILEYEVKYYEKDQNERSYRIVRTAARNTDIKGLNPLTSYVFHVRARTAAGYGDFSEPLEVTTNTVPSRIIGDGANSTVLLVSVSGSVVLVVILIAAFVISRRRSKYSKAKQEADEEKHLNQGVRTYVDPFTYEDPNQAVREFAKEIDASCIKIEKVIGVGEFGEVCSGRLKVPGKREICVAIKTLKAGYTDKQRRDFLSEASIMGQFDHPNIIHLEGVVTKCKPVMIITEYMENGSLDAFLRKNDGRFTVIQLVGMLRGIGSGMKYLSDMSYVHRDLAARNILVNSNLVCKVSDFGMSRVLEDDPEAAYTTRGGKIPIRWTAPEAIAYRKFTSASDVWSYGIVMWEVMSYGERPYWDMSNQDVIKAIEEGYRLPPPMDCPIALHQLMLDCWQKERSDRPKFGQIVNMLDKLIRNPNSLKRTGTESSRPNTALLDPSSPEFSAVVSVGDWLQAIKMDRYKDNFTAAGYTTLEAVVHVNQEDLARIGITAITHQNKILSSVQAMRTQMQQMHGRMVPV

For `COc1cc2nc(N3CCN(C(=O)C4COc5ccccc5O4)CC3)nc(N)c2cc1OC` (centres unmarked) [Doxazosin, 2-[4-(2,3-Dihydro-1,4-benzodioxine-2-carbonyl)piperazin-1-yl]-6,7-dimethoxyquinazolin-4-amine], the EphA4 kinase activation [1] was “activated both EphA2 and EphA4 kinases following a similar dose-response relationship”, the EphA3 activation [2] was “activation of EphA3 was weak” and the EphA2 internalization [3] was “caused significant internalization of the endogenous EphA2”. The “haptotactic cell migration toward fibronectin” value [4] was “dose-dependent inhibition of cell migration”, the EphA2 internalization [5] was “stimulated significant EphA2 internalization” and the side effects ([6]; 50 mg/kg i.p. daily for 10 days) was “no notable side effects”. For the same molecule, the body weight [6, 8] was “no changes in body weight”, the “number of lung metastases” value [6, 8] was “significant reduction in the number of lung metastases” and the primary tumor sizes [6, 8] was “difference was not statistically significant”. The “sizes of lung metastases” value [6, 8] was “significantly smaller”, the total metastatic burden [6, 8] was “even more significantly reduced” and the “tumor cell dissemination to local lymph nodes” value [6, 8] was “reduced, but not to a significant extent”. The overall survival ([6]; 27 days after cell implantation, treated 10 days, vehicle 30%) was 70% and the “haptotactic cell migration toward fibronectin” value [7] was “dose-dependent inhibition of cell migration”.
